Measurements published in US4436751A, “Nitrobenzyl monates antibacterial compounds” (Beecham Group Limited, priority 1980, dated 1984).
In brackets after ≈: the same amount, converted by molar mass. Like-named read-outs stand apart in the source and are kept apart here.

Experiments:
Format in all cases: cell-based
M. suipneumoniae JF 435 = experiment: Anti-mycoplasmal MIC in vitro, Friis broth agarose (Table 1); details: Mesomycoplasma hyopneumoniae, JF435, 144 h
M. hyorhinis ATCC 23234 = experiment: as above; details: Mesomycoplasma hyorhinis, ATCC23234, 144 h
M. bovis RCTC 10131 = experiment: microbe, parasite or virus in culture; details: RCTC10131, 144 h
M. suipneumoniae OCD 1 = experiment: Anti-mycoplasmal MIC in vitro, Friis broth agarose (Table 1); details: Mesomycoplasma hyopneumoniae, OCD1, 144 h
M. suipneumoniae Str. 11 = experiment: as above; details: Mesomycoplasma hyopneumoniae, STR.11, 144 h
[1] = system: M. suipneumoniae NCTC 10110; experiment: as above; details: Mesomycoplasma hyopneumoniae, NCTC10110, 144 h
[2] = system: M. suipneumoniae J2206/183b; experiment: as above; details: Mesomycoplasma hyopneumoniae, J2206/183B, 144 h
M. pneumoniae ATCC 15492 = experiment: as above; details: Mycoplasmoides pneumoniae, ATCC15492, 144 h
[3] = system: M. bovigenitalium ATOC 14173; experiment: as above; details: 144 h
[4] = system: M. suipneumoniae PW/C/210; experiment: as above; details: Mesomycoplasma hyopneumoniae, 144 h
E. coli ESS = experiment: Human bacteria MIC, nutrient agar with chocolated horse blood (Table 3); details: Escherichia coli
Protocol: (§1) The values were determined by serial dilutions in nutrient agar with 5% chocolated horse blood after incubations for 18 hours at 37° C.

[5] = system: Neisseria catarrhalis 1502; experiment: as above
Protocol: as §1

Strep. 2733-B = experiment: as above
Protocol: as §1

Strep. agalactiae SPA1 = experiment: Veterinary bacteria MIC, Diagnostic Sensitivity Test Agar (Table 2); details: Streptococcus agalactiae
Protocol: (§2) The values were determined using a two fold serial dilutions in Diagnostic Sensitivity Test Agar with an inoculum of 10^4 organisms and incubation for 18 hours at 37° C.

Bord. bronchiseptica BO9 = experiment: as above; details: Bordetella bronchiseptica
Protocol: as §2

Bord. bronchiseptica BO8 = experiment: as above; details: Bordetella bronchiseptica
Protocol: as §2

[6] = system: Corynebacterium pyogenes CY1; experiment: as above; details: Trueperella pyogenes
Protocol: as §2

Strep. dylgalactiae SPD1 = experiment: as above
Protocol: as §2

Staph. aureus Oxford = experiment: as above; details: Staphylococcus aureus
Protocol: as §2

Staph. aureus 152 = experiment: as above
Protocol: as §2

Past. haemolytica PA5 = experiment: as above; details: Mannheimia haemolytica
Protocol: as §2

E. Coli E1 = experiment: as above; details: Escherichia coli
Protocol: as §2

E. Coli NCTC 10418 = experiment: as above; details: Escherichia coli
Protocol: as §2

Staph. aureus B4 = experiment: as above; details: Staphylococcus aureus
Protocol: as §2

S. typhimurium S18 = experiment: as above; details: Salmonella enterica
Protocol: as §2

S. dublin S7 = experiment: as above; details: Salmonella enterica
Protocol: as §2

M. suipneumoniae HR(2) = experiment: Anti-mycoplasmal MIC in vitro, Friis broth agarose (Table 1); details: Mesomycoplasma hyopneumoniae, 144 h
M. dispar RCTC 10125 = experiment: as above; details: 144 h
[7] = M. pneumoniae ATCC 15492, in vitro, 6 days 37° C., read-out: MIC
[8] = E. coli ESS, nutrient agar 5% chocolated horse blood, 18 hours 37° C., read-out: MIC
[9] = Neisseria catarrhalis 1502, nutrient agar 5% chocolated horse blood, 18 hours 37° C., read-out: MIC
[10] = Strep. agalactiae SPA1, DST Agar, 10^4 organisms, 18 hours 37° C., read-out: MIC
[11] = Strep. dylgalactiae SPD1, DST Agar, 10^4 organisms, 18 hours 37° C., read-out: MIC
[12] = Staph. aureus Oxford, DST Agar, 10^4 organisms, 18 hours 37° C., read-out: MIC
[13] = Staphylococcus aureus, Staph. aureus 152, DST Agar, 10^4 organisms, 18 hours 37° C., read-out: MIC
[14] = Past. haemolytica PA5, DST Agar, 10^4 organisms, 18 hours 37° C., read-out: MIC
[15] = Staph. aureus B4, DST Agar, 10^4 organisms, 18 hours 37° C., read-out: MIC

Row | Structure (SMILES) | MIC (M. suipneumoniae JF 435) | MIC (M. hyorhinis ATCC 23234) | MIC (M. bovis RCTC 10131) | MIC (M. suipneumoniae OCD 1) | MIC (M. suipneumoniae Str. 11) | MIC [1] | MIC [2] | MIC (M. pneumoniae ATCC 15492; [7]) | MIC [3] | MIC [4] | MIC (E. coli ESS; [8]) | MIC [5, 9] | MIC (Strep. 2733-B; 18 h) | MIC (Strep. agalactiae SPA1; [10]) | MIC (Bord. bronchiseptica BO9; BO9, 18 h) | MIC (Bord. bronchiseptica BO8; BO8, 18 h) | MIC ([6]; CY1, 18 h) | MIC (Strep. dylgalactiae SPD1; [11]) | MIC (Staph. aureus Oxford; [12]) | MIC (Staph. aureus 152; [13]) | also measured
1 | C/C(=C\C(=O)OCc1ccccc1[N+](=O)[O-])CC1OCC(CC2OC2C(C)C(C)O)C(O)C1O (stereo not drawn) [C, O--nitrobenzyl monate A, reference compound] | 0.5 µg/mL (≈ 1.04 µM) | 0.25 µg/mL (≈ 0.521 µM) | ≤ 0.01 µg/mL | 0.5 µg/mL (≈ 1.04 µM) | 0.25 µg/mL (≈ 0.521 µM) | 0.5 µg/mL (≈ 1.04 µM) | 0.5 µg/mL (≈ 1.04 µM) | 5 µg/mL (≈ 10.4 µM) | 0.025 µg/mL (≈ 0.0521 µM) | 0.25 µg/mL (≈ 0.521 µM) | 2.5 µg/mL (≈ 5.21 µM) | 1 µg/mL (≈ 2.09 µM) | 2.5 µg/mL (≈ 5.21 µM) | 2.5 µg/mL (≈ 5.21 µM) | 10 µg/mL (≈ 20.9 µM) | 80 µg/mL (≈ 167 µM) | > 80 µg/mL | 0.625 µg/mL (≈ 1.3 µM) | 0.625 µg/mL (≈ 1.3 µM) | 0.625 µg/mL (≈ 1.3 µM) | MIC (Past. haemolytica PA5; [14]): 10 µg/mL (≈ 20.9 µM); MIC (E. Coli E1; 18 h): > 80 µg/mL; MIC (E. Coli NCTC 10418; NCTC10418, 18 h): > 80 µg/mL; MIC (Staph. aureus B4; [15]): 0.625 µg/mL (≈ 1.3 µM); MIC (S. typhimurium S18; TYPHIMURIUM, 18 h): > 80 µg/mL; MIC (S. dublin S7; S7, 18 h): > 80 µg/mL; MIC (M. suipneumoniae HR(2)): 0.5 µg/mL (≈ 1.04 µM); MIC (M. dispar RCTC 10125): 0.1 µg/mL (≈ 0.209 µM)
2 | C/C(=C\C(=O)OC(C)c1ccc([N+](=O)[O-])cc1)CC1OCC(CC2OC2C(C)C(C)O)C(O)C1O (stereo not drawn) [Example 4, 1-(p-nitrophenyl)ethyl monate A] | – | 0.5 µg/mL (≈ 1.01 µM) | 0.025 µg/mL (≈ 0.0507 µM) | 1 µg/mL (≈ 2.03 µM) | 1 µg/mL (≈ 2.03 µM) | – | 1 µg/mL (≈ 2.03 µM) | 10 µg/mL (≈ 20.3 µM) | 0.05 µg/mL (≈ 0.101 µM) | 1 µg/mL (≈ 2.03 µM) | 2.5 µg/mL (≈ 5.07 µM) | 0.5 µg/mL (≈ 1.01 µM) | – | 2.5 µg/mL (≈ 5.07 µM) | – | – | – | 0.625 µg/mL (≈ 1.27 µM) | 1.25 µg/mL (≈ 2.53 µM) | 1.25 µg/mL (≈ 2.53 µM) | MIC (M. suipneumoniae JF 435; M. suipneumoniae JF 435, in vitro, 6 days 37° C., read-out: MIC): 2.5 µg/mL (≈ 5.07 µM); MIC ([1]; M. suipneumoniae NCTC 10110, in vitro, 6 days 37° C., read-out: MIC): 2.5 µg/mL (≈ 5.07 µM); MIC (Strep. 2733-B; Strep. 2733-B, nutrient agar 5% chocolated horse blood, 18 hours 37° C., read-out: MIC): 1 µg/mL (≈ 2.03 µM); MIC (Bord. bronchiseptica BO9; Bord. bronchiseptica BO9, DST Agar, 10^4 organisms, 18 hours 37° C., read-out: MIC): 5 µg/mL (≈ 10.1 µM); MIC (Bord. bronchiseptica BO8; Bord. bronchiseptica BO8, DST Agar, 10^4 organisms, 18 hours 37° C., read-out: MIC): > 80 µg/mL; MIC ([6]; Corynebacterium pyogenes CY1, DST Agar, 10^4 organisms, 18 hours 37° C., read-out: MIC): > 80 µg/mL; MIC (Past. haemolytica PA5; [14]): 20 µg/mL (≈ 40.5 µM); MIC (E. Coli E1; E. Coli E1, DST Agar, 10^4 organisms, 18 hours 37° C., read-out: MIC): > 80 µg/mL; MIC (E. Coli NCTC 10418; NCTC10418, E. Coli NCTC 10418, DST Agar, 10^4 organisms, 18 hours 37° C., read-out: MIC): > 80 µg/mL; MIC (Staph. aureus B4; [15]): 2.5 µg/mL (≈ 5.07 µM); MIC (S. typhimurium S18; S. typhimurium S18, DST Agar, 10^4 organisms, 18 hours 37° C., read-out: MIC): > 80 µg/mL; MIC (S. dublin S7; S. dublin S7, DST Agar, 10^4 organisms, 18 hours 37° C., read-out: MIC): > 80 µg/mL; MIC (M. suipneumoniae HR(2); M. suipneumoniae HR(2), in vitro, 6 days 37° C., read-out: MIC): 2.5 µg/mL (≈ 5.07 µM); MIC (M. dispar RCTC 10125; M. dispar RCTC 10125, in vitro, 6 days 37° C., read-out: MIC): 0.1 µg/mL (≈ 0.203 µM)
3 | C/C(=C\C(=O)OCc1cc([N+](=O)[O-])cc([N+](=O)[O-])c1)CC1OCC(CC2OC2C(C)C(C)O)C(O)C1O (stereo not drawn) [Example 6, 3,5-dinitrobenzyl monate A] | 0.05 µg/mL (≈ 0.0953 µM) | 0.025 µg/mL (≈ 0.0477 µM) | ≤ 0.01 µg/mL | 0.05 µg/mL (≈ 0.0953 µM) | 0.025 µg/mL (≈ 0.0477 µM) | 0.05 µg/mL (≈ 0.0953 µM) | 0.05 µg/mL (≈ 0.0953 µM) | – | ≤ 0.01 µg/mL | 0.025 µg/mL (≈ 0.0477 µM) | – | – | 0.5 µg/mL (≈ 0.953 µM) | – | 10 µg/mL (≈ 19.1 µM) | 40 µg/mL (≈ 76.3 µM) | > 80 µg/mL | – | – | – | MIC (M. pneumoniae ATCC 15492): 2.5 µg/mL (≈ 4.77 µM); MIC (E. coli ESS; 18 h): 1 µg/mL (≈ 1.91 µM); MIC ([5]; Neisseria, 1502, 18 h): < 0.025 µg/mL; MIC (Strep. agalactiae SPA1; SPA1, 18 h): 0.312 µg/mL (≈ 0.595 µM); MIC (Strep. dylgalactiae SPD1; 18 h): 0.312 µg/mL (≈ 0.595 µM); MIC (Staph. aureus Oxford; 18 h): 0.312 µg/mL (≈ 0.595 µM); MIC (Staph. aureus 152; Staphylococcus aureus, 152, 18 h): 0.312 µg/mL (≈ 0.595 µM); MIC (Past. haemolytica PA5; PA5, 18 h): 5 µg/mL (≈ 9.53 µM); MIC (E. Coli E1; 18 h): 80 µg/mL (≈ 153 µM); MIC (E. Coli NCTC 10418; NCTC10418, 18 h): 80 µg/mL (≈ 153 µM); MIC (Staph. aureus B4; B4, 18 h): 0.312 µg/mL (≈ 0.595 µM); MIC (S. typhimurium S18; TYPHIMURIUM, 18 h): 80 µg/mL (≈ 153 µM); MIC (S. dublin S7; S7, 18 h): > 80 µg/mL; MIC (M. suipneumoniae HR(2)): 0.05 µg/mL (≈ 0.0953 µM); MIC (M. dispar RCTC 10125): ≤ 0.01 µg/mL
